From patent US7468384B2, “Microbicidal composition” (Rohm and Haas Company, priority 2004, dated 2008)
Like-named read-outs stand apart in the source and are kept apart here.

Tested on: S. aureus 6538
Test: Synergy test, microtiter plate high resolution MIC assay, bacterium
Assay type: cell-based
Settings: for SI (calculated synergy index): S. aureus 6538, TSB
Description: One measure of synergism is the industrially accepted method described by Kull, F. C.; Eisman, P. C.; Sylwestrowicz, H. D. and Mayer, R. L., in Applied Microbiology 9:538-541 (1961), using the ratio determined by the formula: Qa/QA+Qb/QB=Synergy Index (“SI”) wherein: • QA=concentration of compound A (first component) in ppm, acting alone, which produced an end point (MIC of Compound A). • Qa=concentration of compound A in ppm, in the mixture, which produced an end point. • QB=concentration of compound B (second component) in ppm, acting alone, which produced an end point (MIC of Compound B). • Qb=concentration of compound B in ppm, in the mixture, which produced an end point.
When the sum of Qa/QA and Qb/QB is greater than one, antagonism is indicated. […] The lower the SI, the greater the synergy shown by that particular mixture. The minimum inhibitory concentration (MIC) of a microbicide is the lowest concentration tested under a specific set of conditions that prevents the growth of added microorganisms.
Synergy tests were conducted using standard microtiter plate assays with media designed for optimal growth of the test microorganism. Soybean Casein Digest Broth (Tryptic Soy Broth, TSB medium) or minimal salt medium supplemented with 0.2% glucose and 0.1% yeast extract (M9GY medium) was used for testing bacteria; Potato Dextrose Broth (PDB medium) was used for testing yeast and mold. In this method, a wide range of combinations of microbicides was tested by conducting high resolution MIC assays in the presence of various concentrations of MI. High resolution MICs were determined by adding varying amounts of microbicide to one column of a microtitre plate and doing subsequent ten-fold dilutions using an automated liquid handling system to obtain a series of endpoints ranging from 2 ppm to 10,000 ppm active ingredient.

In the case of `Cn1sccc1=O` [2-methyl-3-isothiazolone, 2-methyl-4-isothiazolin-3-one], the MIC (Staphylococcus aureus, 6538, 24 h, read-out: Qa: end-point activity (MIC) of MI in the mixture (MI alone, QA, where Qb = 0)) is reported as 200 µg/mL, the MIC (Staphylococcus aureus, 6538, 48 h, read-out: MIC of component acting alone (QA / QB)) is reported as 300 µg/mL and the MIC (Staphylococcus aureus, 6538, 48 h, read-out: Qa: end-point activity (MIC) of MI in the mixture (MI alone, QA, where Qb = 0)) is reported as 300 µg/mL. For the same compound, the MIC (Staphylococcus aureus, 6538, 72 h, read-out: MIC of component acting alone (QA / QB)) was 300 µg/mL, the “SI (calculated synergy index)” value (Table 5, 48 hours) was 1.00 and the “SI (calculated synergy index)” value (Table 6, 24 hours) was 1.00.
